# Key:
# Format in all cases: in vivo, C57BL/6 mice
# [1] = system: colonic explants from mice with chronic colitis; test: Cytokine release from 24 hr colonic explant cultures, chronic colitis (Example 6); details: 24 hr colonic explant cultures harvested at 38 d; FIG. 8
# [2] = system: DSS-induced chronic colitis; test: DSS-induced chronic colitis: body weight and colon length (Example 6)
# [3] = system: PP cells isolated from colonic tissue; test: FACS staining of CD3+ and Foxp3+ cells in PP cells isolated from colonic tissue, chronic colitis; details: DSS chronic colitis, treatment as per FIG. 7A
# [4] = system: DSS-induced chronic colitis; test: Effect of T depletion (anti-CD4 mAb) on protection from DSS-induced chronic colitis; details: no anti-CD4 mAb
# [5] = system: DSS-induced acute colitis; test: DSS-induced acute colitis (Example 6); details: 3% DSS 7 days; treatment from time of DSS exposure; FIGS. 12A-12C
# From the text: Wild-type (WT) C57BL/6 female mice, with high susceptibility to DSS-induced colitis, were used throughout and purchased from the Jackson laboratories (Bar Harbor, Me.). All mice were housed five per cage under specific pathogen-free conditions, allowed standard diet and water ad libitum, and used at 6-8 wk of age. Acute DSS colitis was induced by giving mice distilled drinking water containing 3% (wt./vol) DSS (Mol.Wt.=40 kDa; ICN Biochemicals, Aurora, Ohio) for 7 days. For induction of chronic colitis, mice were treated with 5 days of 2.5% DSS followed by 7 days of normal drinking water for a total of 3 cycles. Body weight was measured three times/week throughout the experiment. The maximum mortality observed following induction of acute colitis was 15% averaged over all studies, while no significant mortality was seen any groups in the chronic colitis model. Maximum weight loss in either model was ˜25%. […] In FIG. 12A, changes in body weight are expressed as a percent weight loss from baseline and plotted versus time post initiation of DSS treatment (x-axis). […] In FIGS. 12B and 12C, changes in colon length and 24 hr cytokine production from colon explant cultures respectively were assessed on day 9 following initiation of DSS treatment for mice shown in FIG. 12A and are expressed as mean±SD.
structure (smiles),measurement,setting,value
C[C@]12CCC(=O)C=C1CC[C@@H]1[C@@H]2[C@@H](O)C[C@@]2(C)[C@H]1CC[C@]2(O)C(=O)COC(=O)CCC(=O)O [Solu-Cortef],"release of inflammatory cytokines IFNγ, TNFα, IL-1β, IL-17 and IL-6",[1],No such increased inflammatory cytokine release
same,weight loss in second and third cycle of DSS treatment,"[2]; Ig weekly ×5 im from start of first DSS cycle, Solu-Cortef 6 μg/mouse alternate days, FIG. 7A",attenuation of weight loss
same,suppression of disease in chronic colitis,"[2]; all DSS cycles, 6 μg/mouse on alternate days",active in suppressing disease at all times
same,% Ant-CD3,[3]; PP cells from 2-3 mice/group,4.4 ± 2.2%
same,% Anti-Foxp3,[3]; PP cells from 2-3 mice/group,0.2 ± 0.2%
same,Foxp3:CD3,"[3]; ratio, PP cells",0.04
same,weight loss after induction of chronic colitis,"[4]; 5 mice/group, FIG. 9A",protected
same,release of inflammatory cytokines from colon explant cultures,[4]; FIG. 10,attenuation of release
same,"protection from pathology of acute colitis (weight loss, colon length, production of inflammatory cytokines)",[5],protected

# — US20220356232A1, “A COMBINATION OF PLASMA IMMUNOGLOBULIN AND ANTIGEN-SPECIFIC IMMUNOGLOBULIN FOR THE MODIFICATION OF THE IMMUNE SYSTEM AND THE TREATMENT OR PREVENTION OF AUTOIMMUNE DISEASES” (Network Immunology Inc., priority 2019, published 2022)
